Source: patent US20140322315A1, “CYSTEAMINE AND/OR CYSTAMINE FOR TREATING ISCHEMIC INJURY” (The Regents of the University of California, priority 2011, published 2014)

Test system: adiponectin
Assay: Serum total and multimeric adiponectin in subjects with NAFLD treated 24 weeks with EC-cysteamine
Assay type: in vivo, human
Source text: Eleven children ≧10 years, with biopsy-proven NAFLD and an alanine aminotransferase (ALT) level ≧60 IU/L, were enrolled. They were either newly diagnosed or had not received specific therapy for NAFLD such as vitamin E or insulin-sensitizing drugs for at least 3 months before entering the study. All had undertaken standard of care lifestyle changes involving diet and exercise for more than 3 months. The study's primary outcome measure was normalization (≦40 IU/L) or 50% reduction in baseline serum ALT at 24 weeks of EC-cysteamine therapy; these subjects were deemed responders.
Subjects were treated for 24 wks and remained monitored for 24 weeks following its discontinuation. The mean EC-cysteamine dose ingested was 654 mg twice daily or 15.2 mg/kg/day (median dose 900 mg) for 24 wks.
During the pilot study blood was collected at pre-defined intervals. Serum was stored at −80° C. until time of assay. Adequate serum volumes were available in 10 of the 11 subjects with NAFLD and only up to 16 weeks post-treatment.
Total and multimeric adiponectin levels were measured in serum taken from: (1) subject with NAFLD collected at 0 and 24 wks of cysteamine therapy and again 16 wks after stopping therapy (i.e., 40 weeks); (2) pretreated 0-week subjects with NAFLD and adults without NAFLD at room temperature and at 37° C. and also after incubation with cysteamine 90 μM for 1 hour at 37° C.; and (3) pretreated 0-week subjects with NAFLD before and after incubation with cysteamine at varying concentrations (15, 30, 45, 60, 90, 120 μM) for 1 hour at 37° C. to establish dose-response profile.
Sodium dodecyl sulfate polyacrylamide gel electrophoresis (SDS-PAGE) was performed according to standard Laemmli's method. Sample buffer for non-reducing, non-heat denaturing conditions contained 3% SDS; 50 mmol/1 Tris-HCL, pH 6.8 and 20% glycerol. Proteins were separated using 3-8% Tris-Acetate Gels (Invitrogen, Carlsbad Calif.) with Tris-Acetate running buffer per manufacturer instructions. For immunoblotting, proteins were transferred to nitrocellulose membranes. Membranes were washed with Tween (Tris-buffered Saline, 0.1% […]) and incubated with monoclonal antibody (1:500 BD Transduction Laboratories, San Diego, Calif.). After washing with Tris-buffered saline with 0.1% Tween (4×5 min) membranes were incubated with L-COR secondary antibodies (LI-COR Biotechnology, Lincoln Nebr.) at 1:20,000. Adiponectin multimers were detected and quantified using the LICOR imager and software analysis program. Relative distribution of adiponectin multimers was determined by dividing band density by total density (cellular adiponectin) or by total adiponectin as determined by ELISA (Millipore, Billerica, Mass.). The percentage of adionectin multimer was then multiplied by the total adiponectin level to calculate absolute oligomer value.

[1] = after discontinuing therapy at 24 weeks, P=0.01

## NCCS.O=C(O)C(O)C(O)C(=O)O (stereo not shown) [cysteamine bitartrate, Cysteamine bitartrate]
7 responders, 24 weeks
  mean percent change of HMW adiponectin from baseline: 87.7%
  mean percent change of LMW adiponectin from baseline: 33.9%
  mean percent change of MMW adiponectin from baseline: 13.7%
  mean percent change of total adiponectin from baseline: 57.5%
40-week timepoint (16 weeks off therapy)
  all adiponectin multimer levels, difference from baseline: ≤ 2%
After discontinuing therapy at 24 weeks, P=0.009
  LMW adiponectin change between 24-week and 40-week timepoints: significant mean percent reduction
[1]
  MMW adiponectin change between 24-week and 40-week timepoints: significant mean percent reduction
  total adiponectin change between 24-week and 40-week timepoints: significant mean percent reduction
After discontinuing therapy at 24 weeks, P=0.02
  HMW adiponectin change between 24-week and 40-week timepoints: significant mean percent reduction
All subjects, 0-24 weeks oral EC-cysteamine, P=0.05
  mean percent increase of total adiponectin from baseline: 49.3%
All subjects, 24 weeks oral EC-cysteamine (15.2 mg/kg/day), P=0.02
  mean percent increase of HMW adiponectin from baseline: 53%
All subjects, 24 weeks oral EC-cysteamine, P=0.02
  mean percent increase of MMW adiponectin from baseline: 19%
All subjects, 24 weeks oral EC-cysteamine, P=0.03
  mean percent increase of LMW adiponectin from baseline: 29.4%
